Reference: PMC4773034 (Journal of biomolecular screening, 2012)

These compounds were tested against EndA(H160G) (Streptococcus pneumoniae serotype 4, UniProt P0A3S3, H160G) (assay: PicoGreen nuclease assay). Details: 25 mM imidazole, 30 min reaction, top concentration 30 µM.
Assay type: biochemical
NC(Cc1cc(O)c(O)cc1O)C(=O)O (racemic) [6-hydroxy-DL-DOPA] was tested, and the “IC50 (stated in words)” value was “nanomolar range”.
With CC(C)c1ccc2c(c1)c(SC(C)(C)C)c(CC(C)(C)C(=O)[O-])n2Cc1ccc(Cl)cc1.[Na+] [MK-886] the “IC50 (stated in words)” value was “nanomolar range”.
In the case of O=c1c(O)c(-c2cc(O)c(O)c(O)c2)oc2cc(O)cc(O)c12 [Myricetin], the “IC50 (stated in words)” value is reported as “nanomolar range”.
